Measurements from ChEMBL document CHEMBL1250454, “Oral oxytocin antagonists” (J Med Chem, 2010).

Tests used:
Homo sapiens [1] = organism: Homo sapiens; assay: Selectivity ratio of Ki for human oxytocin receptor Ki for human vasopressin V1a receptor
Vasopressin V1b receptor [2] = target: T1, Vasopressin V1b receptor (Homo sapiens, UniProt P47901); assay: Displacement of [3H]vasopressin from human vasopressin V1b receptor
T1 sequence (P47901 whole entry): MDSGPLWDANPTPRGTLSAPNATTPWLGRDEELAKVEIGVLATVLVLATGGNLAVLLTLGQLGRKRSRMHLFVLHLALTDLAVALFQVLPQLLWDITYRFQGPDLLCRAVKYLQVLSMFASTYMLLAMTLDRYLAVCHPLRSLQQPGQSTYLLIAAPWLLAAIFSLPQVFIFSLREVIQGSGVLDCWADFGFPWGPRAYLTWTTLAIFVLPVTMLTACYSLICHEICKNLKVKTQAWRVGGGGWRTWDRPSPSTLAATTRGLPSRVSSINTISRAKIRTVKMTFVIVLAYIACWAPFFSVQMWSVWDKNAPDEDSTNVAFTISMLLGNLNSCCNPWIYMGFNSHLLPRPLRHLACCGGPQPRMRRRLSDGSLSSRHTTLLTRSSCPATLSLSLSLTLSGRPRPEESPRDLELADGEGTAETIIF

Vasopressin V1a receptor [3] = target: T2, Vasopressin V1a receptor (Homo sapiens, UniProt P37288); assay: Displacement of [3H]vasopressin from human vasopressin V1a receptor
T2 sequence (P37288 whole entry): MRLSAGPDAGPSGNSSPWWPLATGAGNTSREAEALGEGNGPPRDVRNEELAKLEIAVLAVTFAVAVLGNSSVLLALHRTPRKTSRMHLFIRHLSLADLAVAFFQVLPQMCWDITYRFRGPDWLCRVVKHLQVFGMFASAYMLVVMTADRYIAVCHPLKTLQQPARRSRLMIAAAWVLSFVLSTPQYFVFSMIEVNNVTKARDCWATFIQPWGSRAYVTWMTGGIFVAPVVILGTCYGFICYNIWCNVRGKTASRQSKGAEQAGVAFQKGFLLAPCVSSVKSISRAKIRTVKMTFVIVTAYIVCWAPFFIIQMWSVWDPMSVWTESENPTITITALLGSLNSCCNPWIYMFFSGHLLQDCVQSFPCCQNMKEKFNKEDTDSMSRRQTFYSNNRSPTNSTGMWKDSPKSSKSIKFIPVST

Vasopressin V2 receptor [4] = target: T3, Vasopressin V2 receptor (Homo sapiens, UniProt P30518); assay: Displacement of [3H]vasopressin from human vasopressin V2 receptor
T3 sequence (P30518 whole entry): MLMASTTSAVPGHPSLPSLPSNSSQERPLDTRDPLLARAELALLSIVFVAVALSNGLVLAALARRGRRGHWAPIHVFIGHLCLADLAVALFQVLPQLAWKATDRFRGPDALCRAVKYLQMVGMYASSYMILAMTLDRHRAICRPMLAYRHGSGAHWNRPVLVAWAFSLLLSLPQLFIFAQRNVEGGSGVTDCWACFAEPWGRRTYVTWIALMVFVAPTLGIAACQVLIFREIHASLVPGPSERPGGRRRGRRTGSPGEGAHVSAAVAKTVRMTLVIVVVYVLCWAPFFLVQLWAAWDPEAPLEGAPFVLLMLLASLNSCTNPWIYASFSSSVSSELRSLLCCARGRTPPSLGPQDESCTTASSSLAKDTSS

Homo sapiens [5] = organism: Homo sapiens; assay: Selectivity ratio of Ki for human oxytocin receptor Ki for human vasopressin V2 receptor
Homo sapiens [6] = organism: Homo sapiens; assay: Selectivity ratio of Ki for human oxytocin receptor Ki for human vasopressin V1b receptor
[7] = Oral bioavailability in pregnant rat; format: ADME, organism-based; conditions: female, in vivo
Oxytocin receptor [8] = target: T4, Oxytocin receptor (Rattus norvegicus, UniProt P70536); assay: Antagonist activity at oxytocin receptor in rat uterine strips assessed as inhibition of oxytocin-induced contraction; format: functional; conditions: read-out: pA2 (converted)
T4 sequence (P70536 whole entry): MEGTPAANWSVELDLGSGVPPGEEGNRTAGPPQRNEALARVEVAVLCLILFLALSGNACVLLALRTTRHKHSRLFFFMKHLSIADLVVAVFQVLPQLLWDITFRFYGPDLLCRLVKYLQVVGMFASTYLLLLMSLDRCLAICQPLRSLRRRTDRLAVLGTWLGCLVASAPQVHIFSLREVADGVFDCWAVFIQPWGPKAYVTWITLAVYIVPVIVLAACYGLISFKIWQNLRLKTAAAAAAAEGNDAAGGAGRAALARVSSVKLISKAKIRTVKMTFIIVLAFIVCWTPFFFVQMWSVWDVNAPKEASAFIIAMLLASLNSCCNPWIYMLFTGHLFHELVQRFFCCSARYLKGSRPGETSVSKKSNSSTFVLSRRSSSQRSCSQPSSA

[9] = Oral bioavailability in rat; format: ADME, organism-based; conditions: in vivo
Rattus norvegicus [10] = assay: Inhibition of oxytocin-induced uterine contraction in po dosed rat; format: functional
Oxytocin receptor [11] = target: T5, Oxytocin receptor (Homo sapiens, UniProt P30559); assay: Displacement of [3H]-oxytocin from human oxytocin receptor expressed in CHO cells; format: cell-based
T5 sequence (P30559 whole entry): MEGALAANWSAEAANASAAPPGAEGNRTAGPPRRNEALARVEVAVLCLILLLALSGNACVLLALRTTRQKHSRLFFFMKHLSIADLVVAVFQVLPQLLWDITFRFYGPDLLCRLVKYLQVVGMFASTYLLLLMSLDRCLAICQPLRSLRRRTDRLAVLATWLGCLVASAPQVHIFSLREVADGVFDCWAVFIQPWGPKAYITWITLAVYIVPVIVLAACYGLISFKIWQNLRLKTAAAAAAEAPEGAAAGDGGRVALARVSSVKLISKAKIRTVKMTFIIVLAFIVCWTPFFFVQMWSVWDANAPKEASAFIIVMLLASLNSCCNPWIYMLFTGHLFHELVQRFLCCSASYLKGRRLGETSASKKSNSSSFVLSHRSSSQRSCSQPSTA

[12] = Half life in pregnant rat; format: ADME, organism-based; conditions: female, in vivo
Oxytocin receptor [13] = target: T5, Oxytocin receptor; assay: Displacement of [3H]-oxytocin from oxytocin receptor in human uterus tissue; format: tissue-based
Rattus norvegicus [14] = assay: Inhibition of oxytocin-induced uterine contraction in iv dosed rat; format: functional
Vasopressin V2 receptor [15] = target: T3, Vasopressin V2 receptor; assay: Displacement of [3H]vasopressin from human vasopressin V2 receptor expressed in CHO cells; format: cell-based
Rattus norvegicus [16] = assay: Inhibition of oxytocin-induced uterine contraction in intraduodenally dosed rat; format: functional
[17] = Oral bioavailability in rhesus monkey; format: ADME, organism-based, Macaca mulatta; conditions: in vivo
Vasopressin V1a receptor [18] = target: T2, Vasopressin V1a receptor; assay: Displacement of [3H]vasopressin from human vasopressin V1a receptor expressed in CHO cells; format: cell-based
Oxytocin receptor [19] = target: T4, Oxytocin receptor; assay: Displacement of [3H]-oxytocin from rat oxytocin receptor expressed in CHO cells; format: cell-based
Rattus norvegicus [20] = assay: Inhibition of oxytocin-induced uterine contraction in pregnant rat at 60 mg/kg, po; format: functional
Rattus norvegicus [21] = assay: Inhibition of oxytocin-induced uterine contraction in non-pregnant rat at 30 mg/kg, po; format: functional
[22] = Protein binding in human serum; format: ADME, cell-free; conditions: read-out: PB (converted)
[23] = Oral bioavailability in chimpanzee; format: ADME, organism-based, Pan troglodytes; conditions: in vivo
Vasopressin V2 receptor [24] = target: T3, Vasopressin V2 receptor; assay: Displacement of [3H]vasopressin from vasopressin V2 receptor in human kidney tissue
Vasopressin V2 receptor [25] = target: T6, Vasopressin V2 receptor (Rattus norvegicus, UniProt Q00788); assay: Displacement of [3H]vasopressin from rat vasopressin V2 receptor in kidney tissue
T6 sequence (Q00788 whole entry): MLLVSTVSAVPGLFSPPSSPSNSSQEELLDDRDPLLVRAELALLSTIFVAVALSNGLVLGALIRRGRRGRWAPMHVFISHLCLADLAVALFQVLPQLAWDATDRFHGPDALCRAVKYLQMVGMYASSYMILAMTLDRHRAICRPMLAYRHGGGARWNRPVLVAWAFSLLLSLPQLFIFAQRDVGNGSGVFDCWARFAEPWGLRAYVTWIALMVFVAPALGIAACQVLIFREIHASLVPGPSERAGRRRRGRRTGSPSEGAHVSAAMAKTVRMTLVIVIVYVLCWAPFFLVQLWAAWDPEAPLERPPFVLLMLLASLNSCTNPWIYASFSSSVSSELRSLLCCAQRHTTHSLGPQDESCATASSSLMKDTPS

Vasopressin V1a receptor [26] = target: T7, Vasopressin V1a receptor (Rattus norvegicus, UniProt P30560); assay: Displacement of [3H]vasopressin from rat vasopressin V1a receptor in liver tissue
T7 sequence (P30560 whole entry): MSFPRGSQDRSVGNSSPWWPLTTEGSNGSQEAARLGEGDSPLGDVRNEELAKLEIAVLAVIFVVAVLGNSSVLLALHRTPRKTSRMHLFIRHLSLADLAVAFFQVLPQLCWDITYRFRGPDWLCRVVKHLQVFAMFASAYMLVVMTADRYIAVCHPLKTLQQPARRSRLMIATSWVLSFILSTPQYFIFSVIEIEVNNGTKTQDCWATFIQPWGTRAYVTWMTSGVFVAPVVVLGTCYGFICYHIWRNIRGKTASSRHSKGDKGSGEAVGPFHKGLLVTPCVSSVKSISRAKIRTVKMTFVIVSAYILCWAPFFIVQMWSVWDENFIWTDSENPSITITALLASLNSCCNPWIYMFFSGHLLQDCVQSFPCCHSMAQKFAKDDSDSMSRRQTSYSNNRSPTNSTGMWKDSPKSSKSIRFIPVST

Vasopressin V1a receptor [27] = target: T2, Vasopressin V1a receptor; assay: Displacement of [3H]vasopressin from human vasopressin V1a receptor expressed in CHO cells at 10 uM; format: cell-based
Vasopressin V1b receptor [28] = target: T1, Vasopressin V1b receptor; assay: Displacement of [3H]vasopressin from human vasopressin V1b receptor expressed in CHO cells; format: cell-based
Oxytocin receptor [29] = target: T5, Oxytocin receptor; assay: Displacement of [3H]-oxytocin from human oxytocin receptor expressed in HEK293-EBNA cells; format: cell-based
[30] = Aqueous solubility of the compound at pH 5; format: physicochemical
Oxytocin receptor [31] = target: T4, Oxytocin receptor; assay: Displacement of [3H]-oxytocin from rat oxytocin receptor expressed in HEK293-EBNA cells; format: cell-based
Vasopressin V2 receptor [32] = target: T6, Vasopressin V2 receptor; assay: Displacement of [3H]vasopressin from vasopressin V2 receptor in rat kidney tissue
Vasopressin V1a receptor [33] = target: T7, Vasopressin V1a receptor; assay: Displacement of [3H]vasopressin from vasopressin V1a receptor in rat liver tissue
Oxytocin receptor [34] = target: T4, Oxytocin receptor; assay: Displacement of [3H]-oxytocin from oxytocin receptor in rat uterus tissue; format: tissue-based
Vasopressin V1a receptor [35] = target: T2, Vasopressin V1a receptor; assay: Displacement of [3H]vasopressin from vasopressin V1a receptor in human liver tissue

With CC(C)C[C@@H]1C(=O)N[C@H](C2Cc3ccccc3C2)C(=O)N1[C@@H](C(=O)NC(C)C)c1ccc(F)cc1 the Ratio Ki (Homo sapiens [1]) was over 1500, the Ki (Vasopressin V1b receptor [2]) was over 6310 nM and the Ki (Vasopressin V1a receptor [3]) was over 6310 nM. The Ki (Vasopressin V2 receptor [4]) was 1260 nM, the Ratio Ki (Homo sapiens [5]) was over 300 and the Ratio Ki (Homo sapiens [6]) was over 1500.
With CO/N=C1/C[C@@H](C(=O)NC[C@@H](O)c2ccccc2)N(C(=O)c2ccc(-c3ccccc3C)cc2)C1 the bioavailability [7] was 49%, the Kb (Oxytocin receptor [8]) was 15.8 nM and the Ratio Ki (Homo sapiens [1]) was 6. The bioavailability [9] was 49%, the ED50 (Rattus norvegicus [10]) was 89 mg/kg and the IC50 (Oxytocin receptor [11]) was 28 nM. It also gave a Ratio Ki (Homo sapiens [5]) of 350, a half-life [12] of 2.8 h and a Ki (Oxytocin receptor [13]) of 28 nM. The ED50 (Rattus norvegicus [14]; Rattus norvegicus, iv) was 3.5 mg/kg and the Ki (Vasopressin V2 receptor [15]) was over 10000 nM.
With COc1cc(OC2CCN(C(C)=O)CC2)ccc1C(=O)N1CCC(N2C(=O)OCc3ccccc32)CC1 the AD50 (Rattus norvegicus [16]) was 2.5 mg/kg, the bioavailability [17] was 13% and the AD50 (Rattus norvegicus [14]) was 0.55 mg/kg.
Work on CC[C@H](C)[C@@H]1C(=O)N[C@H](C2Cc3ccccc3C2)C(=O)N1[C@@H](C(=O)N1CCOCC1)c1coc(C)n1 [RETOSIBAN] yielded a bioavailability [9] of 100%.
For CO/N=C1/C[C@@H](CO)N(C(=O)c2ccc(-c3ccccc3C)cc2)C1 [NOLASIBAN], the Ki (Vasopressin V1a receptor [18]) was 330 nM, the Ki (Oxytocin receptor [19]) was 210 nM and the bioavailability [9] was 55%. The ED50 (Rattus norvegicus [10]) was 30 mg/kg, the inhibition in vivo at 60 mg/kg (Rattus norvegicus [20]) was 40% and the inhibition in vivo at 30 mg/kg (Rattus norvegicus [21]) was 51%. The fraction unbound [22] was 0.29.
Molecule COc1ccc(N(Cc2ccc(-c3ccccc3C)cn2)S(=O)(=O)c2cn(C)c(C)n2)cn1 has a Ratio Ki (Homo sapiens [1]) of 80, a Ratio Ki (Homo sapiens [5]) of 15700 and a Ki (Oxytocin receptor [13]) of 9.1 nM.
For O=C(Cn1cc(C(F)(F)F)ccc1=O)NCc1cc2cc(C(=O)N3CCC(N4C(=O)OCc5ccccc54)CC3)ccc2o1, the Ratio Ki (Homo sapiens [1]) was 630, the bioavailability [23] was 51% and the Ratio Ki (Homo sapiens [5]) was over 1500. The Ki (Vasopressin V2 receptor [24]) was over 3000 nM.
For CCN(Cc1cccnc1)C(=O)c1ccc(Cl)c([C@]2(C)C(=O)N(Cc3ccc(OC)cc3OC)c3ccc(Cl)cc32)c1, the Kb (Oxytocin receptor [8]) was 3.39 nM, the Ki (Vasopressin V1a receptor [18]) was 143 nM and the Ki (Oxytocin receptor [19]) was 1.6 nM. It also gave an IC50 (Oxytocin receptor [11]) of 0.5 nM, a Ki (Vasopressin V2 receptor [25]) of over 1000 nM and a Ki (Vasopressin V1a receptor [26]) of 99 nM. The Ki (Vasopressin V2 receptor [15]) was over 1000 nM.
CCOCc1nnc(-c2ccc(OCC)c(C)c2)n1-c1ccc(OC)nc1 showed a Ki (Vasopressin V1a receptor [27]) of 549 nM, a Ki (Vasopressin V2 receptor [15]) of over 10000 nM and a Ki (Vasopressin V1b receptor [28]) of over 10000 nM.
COc1ccc(-n2c(C)nnc2-c2ccc(-c3ccccc3OC)cc2)cn1 showed a Ki (Oxytocin receptor [29]) of 56 nM, a Ki (Vasopressin V1a receptor [27]) of 525 nM and a Ki (Vasopressin V2 receptor [15]) of 500 nM. The Ki (Vasopressin V1b receptor [28]) was over 10000 nM.
With CCOc1ccc(S(=O)(=O)N(CC(=O)NN=C2C(=O)Nc3ccccc32)c2ccc(C)cc2)cc1 the solubility [30] was under 1 µg/mL, the Ki (Vasopressin V1b receptor [28]) was 2500 nM and the Ki (Oxytocin receptor [31]) was 25 nM.
In the case of CC1(C)[C@@H]2CC[C@@]1(CS(=O)(=O)N1CCC3(C=Cc4ccccc43)CC1)[C@@](O)(CC(=O)O)C2, the AD50 (Rattus norvegicus [16]) is reported as 30 mg/kg, the Ratio Ki (Homo sapiens [1]) is reported as 3 and the Ki (Vasopressin V2 receptor [32]) is reported as 29000 nM. The Ki (Vasopressin V1a receptor [33]) was 26000 nM, the Ki (Oxytocin receptor [34]) was 370 nM and the Ratio Ki (Homo sapiens [5]) was 11. It also gave a Ki (Oxytocin receptor [13]) of 530 nM, a Ki (Vasopressin V1a receptor [35]) of 1600 nM and an AD50 (Rattus norvegicus [14]) of 10 mg/kg. For the same molecule, the Ki (Vasopressin V2 receptor [24]) was 5600 nM.
